# Columns and labels:
# HIV = conditions: in vitro; cited from earlier work
SMILES,melting point [°C],anti-HIV activity (HIV)
"OCC1(n2nc3ccccc3n2)OCC1c1ccccc1 (stereo not drawn) [Example 1, 2-(Benzotriazol-2-yl)-2-(hydroxymethyl)-3-phenyloxetane]",119 to 123,
"OCC1(n2nccn2)OCC1c1ccccc1 (stereo not drawn) [Example 2, 2-Hydroxymethyl-3-phenyl-2-(1,2,3-triazol-2-yl)oxetane]",77 to 78.3,
Nc1ncnc2c1ncn2[C@@H]1O[C@H](CO)[C@H]1CO [oxetanocin],,potent anti-HIV activity in vitro

# Reference: patent US7687500B2, “Substituted oxetanes, method of making, and method of use thereof” (The University of Connecticut, priority 2004, dated 2010)
